Test results taken from publication PMC7146381, “Modulation of Adhesion Process, E-Selectin and VEGF Production by Anthocyanins and Their Metabolites in an In Vitro Model of Atherosclerosis” (Nutrients, 2020).
Marks after values point to notes of the source that are not given here.

What was measured:
[1] = Cytotoxicity, Trypan blue assay on HUVECs; type: cell-based, Human; conditions: human
Procedure: (§1) The cytotoxicity of the compounds was tested by Trypan blue and (3-(4,5-dimethylthiazol-2-yl)-2, 5-diphenyltetrazolium bromide (MTT) assay on HUVECs, according to the manufacturer’s instructions. Triton X-100 was used as positive control. Two independent experiments were performed in which each compound and concentration was tested in quadruplicate.

E-selectin = experiment: ELISA quantification of E-selectin in cell supernatant; type: cell-based, Human; conditions: for levels of E-selectin in cell supernatant: with TNF-α 100 ng mL^−1, mean ± SEM; for change of E-selectin levels compared to the negative control (without TNF-α): p < 0.05
Procedure: (§2) When the confluency reached about 80%, HUVECs were removed using trypsin ([…]) and seeded on a 0.1% gelatin pre-coated 96-well black plate at the concentration of 2 × 10^4 cells/well at 37 °C and 5% CO2. After 24 h incubation, THP-1 (2 × 10^6) cells were labelled with CellTracker^TM Green CMFDA (1 µM) in 1 mL serum-free RPMI medium (containing 1% HEPES, 1% sodium pyruvate and 0.1% gentamicin) for 30 min. Successively, cells were washed twice, re-suspended in HUVEC medium at a final concentration of 2 × 10^5 cells mL^−1 and added to HUVECs. The adhesion process was induced for 24 h with 100 ng mL^−1 of TNF-α. Then, 200 μL of new medium containing the single compounds (0.02 µM, 0.2 µM, 2 µM and 20 µM for Peo and Pet-3-glc and 0.05 µM, 0.5 µM, 5 µM and 50 µM for VA and MetGA) was added and the cells were further incubated for 24 h. Medium from each well was collected and stored at −80 °C until ELISA analysis. Cells were rinsed twice with 200 µL of Hanks balanced salt solution and the fluorescence (excitation: 485 nm, emission: 538 nm) associated with the number of labeled THP-1 cells attached to the HUVECs was measured by a spectrophotometer (mod. F200 Infinite, TECAN Milan, Italy). Each compound and concentration were tested in quintuplicate in three independent experiments.
(§3) At the end of the experiment, the recovered cell culture supernatants were used to quantify the concentrations of soluble VCAM-1 (Cat# EK0537, BosterBio), E-selectin (Cat# MBS355367, MyBioSource) and VEGF (Cat# V3-200-820-VEF, Vinci-Biochem). The analysis was performed using ELISA kits according to the manufacturer’s instruction. The analyses were conducted in quadruplicate and the results derived from three independent experiments.

soluble VCAM-1 = experiment: ELISA quantification of soluble VCAM-1 in cell supernatant; type: cell-based, Human; conditions: with TNF-α 100 ng mL^−1, mean ± SEM
Procedure: as §2, §3

VEGF = experiment: ELISA quantification of VEGF in cell supernatant; type: cell-based, Human; conditions: for levels of VEGF in cell supernatant: with TNF-α 100 ng mL^−1, mean ± SEM
Procedure: as §2, §3

[2] = test system: adhesion of monocytes to endothelial cells; design: method as in PMID 26873533; conditions: TNF-α 4 h, monocyte co-incubation 15 min; cited from earlier work
[3] = Cytotoxicity, MTT assay on HUVECs; type: cell-based; conditions: human, with TNF-α stimulus, mean ± SEM, read-out: Percentage of cell viability, MTT assay
Procedure: as §1

THP-1 adhesion to HUVECs = experiment: THP-1 (monocytes) adhesion to TNF-α-activated HUVECs, fluorescence of labelled THP-1; type: cell-based, Human; conditions: 24 h after TNF-α 100 ng mL^−1
Procedure: as §2

HUVECs = experiment: Cytotoxicity, Trypan blue assay on HUVECs; type: cell-based, Human; conditions: positive control, HUVEC cells, data not shown; p < 0.0001 vs cells with and without TNF-α (99%)
Procedure: as §1

[4] = 0.02 µM, controls 160-164 (no TNF-α), 316-317 (TNF-α)
[5] = 0.02 µM, controls 59-64 (no TNF-α), 307-316 (TNF-α)
[6] = 0.02 µM, controls 120-121 (no TNF-α), 170-172 (TNF-α)

COc1cc(-c2[o+]c3cc(O)cc(O)c3cc2O[C@@H]2O[C@H](CO)[C@@H](O)[C@H](O)[C@H]2O)ccc1O [Peo-3-glc, peonidin-3-glucoside]
viability at 0.02 µM [1]: 99.7 ± 0.33%
viability at 0.2 µM [1]: 100%
viability at 2 µM [1]: 99.3 ± 0.67%
viability at 20 µM [1]: 99.3 ± 0.33%
levels of E-selectin in cell supernatant (E-selectin; [4]): 143 ± 4.3 ^a
change of E-selectin production vs TNF-α control (E-selectin; 0.02 μM, p < 0.001): −55%
levels of E-selectin in cell supernatant (E-selectin; 0.2 µM): 108 ± 5.3 ^c
change of E-selectin production vs TNF-α control (E-selectin; 0.2 μM, p < 0.001): −66%
change of E-selectin levels compared to the negative control (without TNF-α) (E-selectin; 0.2 μM): −32%
levels of E-selectin in cell supernatant (E-selectin; 2 µM): 109 ± 7.2 ^c
change of E-selectin production vs TNF-α control (E-selectin; 2 μM, p < 0.001): −65%
change of E-selectin levels compared to the negative control (without TNF-α) (E-selectin; 2 μM): −31%
levels of E-selectin in cell supernatant (E-selectin; 20 µM): 76 ± 8.4 ^c
change of E-selectin production vs TNF-α control (E-selectin; 20 μM, p < 0.001): −76%
change of E-selectin levels compared to the negative control (without TNF-α) (E-selectin; 20 µM): −53%
levels of sVCAM-1 in cell supernatant (soluble VCAM-1; [5]): 107 ± 15 ^c
levels of sVCAM-1 in cell supernatant (soluble VCAM-1; 0.2 µM): 104 ± 16 ^c
levels of sVCAM-1 in cell supernatant (soluble VCAM-1; 2 µM): 186 ± 12 ^c
levels of sVCAM-1 in cell supernatant (soluble VCAM-1; 20 µM): 149 ± 24 ^c
levels of VEGF in cell supernatant (VEGF; [6]): 120 ± 6.9 ^a
change of VEGF concentrations vs TNF-α (VEGF; 0.02 μM, p < 0.001): −27%
levels of VEGF in cell supernatant (VEGF; 0.2 µM): 123 ± 1.7 ^a
change of VEGF concentrations vs TNF-α (VEGF; 0.2 μM, p < 0.001): −28%
levels of VEGF in cell supernatant (VEGF; 2 µM): 123 ± 6.0 ^a
change of VEGF concentrations vs TNF-α (VEGF; 2 μM, p < 0.001): −30%
levels of VEGF in cell supernatant (VEGF; 20 µM): 119 ± 2.6 ^a
change of VEGF concentrations vs TNF-α (VEGF; 20 μM, p < 0.001): −30%
concentrations with significant reduction in the adhesion of monocytes to endothelial cells [2]: effective only at the lowest concentration
viability at 20 µM [3]: 98.5 ± 0.12%
change of THP-1 adhesion to HUVECs compared to the TNF-α treatment (THP-1 adhesion to HUVECs; 0.02 µM, p < 0.0001): −37%
change of THP-1 adhesion to HUVECs compared to the TNF-α treatment (THP-1 adhesion to HUVECs; 0.2 µM, p < 0.0001): −24%
change of THP-1 adhesion to HUVECs compared to the TNF-α treatment (THP-1 adhesion to HUVECs; 2 µM, p < 0.0001): −30%
change of THP-1 adhesion to HUVECs compared to the TNF-α treatment (THP-1 adhesion to HUVECs; 20 μM, p < 0.0001): −47%

COc1cc(-c2[o+]c3cc(O)cc(O)c3cc2O[C@@H]2O[C@H](CO)[C@@H](O)[C@H](O)[C@H]2O)cc(O)c1O [Pet-3-glc, petunidin-3-glucoside]
viability at 0.02 µM [1]: 110%
viability at 0.2 µM [1]: 97 ± 1%
viability at 2 µM [1]: 97.7 ± 0.33%
viability at 20 µM [1]: 100%
levels of E-selectin in cell supernatant (E-selectin; [4]): 115 ± 7.5 ^c
change of E-selectin production vs TNF-α control (E-selectin; 0.02 μM, p < 0.001): −64%
change of E-selectin levels compared to the negative control (without TNF-α) (E-selectin; 0.02 µM): −28%
levels of E-selectin in cell supernatant (E-selectin; 0.2 µM): 123 ± 11.8 ^a,c
change of E-selectin production vs TNF-α control (E-selectin; 0.2 μM, p < 0.001): −60%
levels of E-selectin in cell supernatant (E-selectin; 2 µM): 104 ± 6.3 ^c
change of E-selectin production vs TNF-α control (E-selectin; 2 μM, p < 0.001): −67%
change of E-selectin levels compared to the negative control (without TNF-α) (E-selectin; 2 μM): −36%
levels of E-selectin in cell supernatant (E-selectin; 20 µM): 88 ± 12.1 ^c
change of E-selectin production vs TNF-α control (E-selectin; 20 μM, p < 0.001): −72%
change of E-selectin levels compared to the negative control (without TNF-α) (E-selectin; 20 µM): −45%
levels of sVCAM-1 in cell supernatant (soluble VCAM-1; [5]): 311 ± 13 ^b
levels of sVCAM-1 in cell supernatant (soluble VCAM-1; 0.2 µM): 297 ± 15 ^b
levels of sVCAM-1 in cell supernatant (soluble VCAM-1; 2 µM): 300 ± 14 ^b
levels of sVCAM-1 in cell supernatant (soluble VCAM-1; 20 µM): 83 ± 10 ^c
levels of VEGF in cell supernatant (VEGF; [6]): 129 ± 10 ^a
change of VEGF concentrations vs TNF-α (VEGF; 0.02 μM, p < 0.001): −24%
levels of VEGF in cell supernatant (VEGF; 0.2 µM): 123 ± 7.4 ^a
change of VEGF concentrations vs TNF-α (VEGF; 0.2 μM, p < 0.001): −27%
levels of VEGF in cell supernatant (VEGF; 2 µM): 123 ± 2.9 ^a
change of VEGF concentrations vs TNF-α (VEGF; 2 μM, p < 0.001): −28%
levels of VEGF in cell supernatant (VEGF; 20 µM): 117 ± 9.9 ^a
change of VEGF concentrations vs TNF-α (VEGF; 20 μM, p < 0.001): −30%
viability at 20 µM [3]: 94.4 ± 0.45%
change of THP-1 adhesion to HUVECs compared to the TNF-α treatment (THP-1 adhesion to HUVECs; 0.02 µM, p < 0.0001): −37%
change of THP-1 adhesion to HUVECs compared to the TNF-α treatment (THP-1 adhesion to HUVECs; 0.2 µM, p < 0.0001): −33%
change of THP-1 adhesion to HUVECs compared to the TNF-α treatment (THP-1 adhesion to HUVECs; 2 µM, p < 0.0001): −33%
change of THP-1 adhesion to HUVECs compared to the TNF-α treatment (THP-1 adhesion to HUVECs; 20 μM, p < 0.0001): −45%

COc1cc(C(=O)O)ccc1O [VA, vanillic acid]
viability at 0.05 µM [1]: 100%
viability at 0.5 µM [1]: 99.7 ± 0.33%
viability at 5 µM [1]: 99.7 ± 0.66%
viability at 50 µM [1]: 99.3 ± 0.67%
levels of E-selectin in cell supernatant (E-selectin; 0.05 µM): 312 ± 14.1 ^b
levels of E-selectin in cell supernatant (E-selectin; 0.5 µM): 312 ± 11.2 ^b
levels of E-selectin in cell supernatant (E-selectin; 5 µM): 305 ± 7.4 ^b
levels of E-selectin in cell supernatant (E-selectin; 50 µM): 95 ± 13.2 ^c
change of E-selectin levels with respect to the positive TNF-α control (E-selectin; 50 μM, p < 0.001): −70%
change of VEGF concentrations vs TNF-α (VEGF; 0.05 μM): −12%
levels of VEGF in cell supernatant (VEGF; 0.05 µM): 149 ± 3.0 ^c
change of VEGF concentrations vs TNF-α (VEGF; 0.5 μM): −17%
levels of VEGF in cell supernatant (VEGF; 0.5 µM): 141 ± 8.3 ^c
change of VEGF concentrations vs TNF-α (VEGF; 5 μM): −13%
levels of VEGF in cell supernatant (VEGF; 5 µM): 147 ± 4.9 ^c
change of VEGF concentrations vs TNF-α (VEGF; 50 μM): −21%
levels of VEGF in cell supernatant (VEGF; 50 µM): 135 ± 5.7 ^c
concentrations with significant reduction in the adhesion of monocytes to endothelial cells [2]: 0.2 μM and 2 µM only
viability at 50 µM ([3]; 50 µM): 99.7 ± 0.32%
change of THP-1 adhesion to HUVECs compared to the TNF-α treatment (THP-1 adhesion to HUVECs; 50 μM, p < 0.001): −21%

Oc1cc(O)c2cc(O[C@@H]3OC[C@H](O)[C@H](O)[C@H]3O)c(-c3ccc(O)c(O)c3)[o+]c2c1 [arabinoside]
concentrations with significant reduction in the adhesion of monocytes to endothelial cells [2]: 0.1 to 2 µM

OC[C@H]1O[C@@H](Oc2cc3c(O)cc(O)cc3[o+]c2-c2ccc(O)c(O)c2)[C@H](O)[C@@H](O)[C@@H]1O [cyanidin-3-glucoside]
concentrations with significant reduction in the adhesion of monocytes to endothelial cells [2]: 0.1 to 2 µM

OC[C@H]1O[C@@H](Oc2cc3c(O)cc(O)cc3[o+]c2-c2cc(O)c(O)c(O)c2)[C@H](O)[C@@H](O)[C@@H]1O [delphinidin-3-glucoside]
concentrations with significant reduction in the adhesion of monocytes to endothelial cells [2]: all the concentrations tested

COc1cc(/C=C/C(=O)O)ccc1O [ferulic, ferulic acid]
concentrations with significant reduction in the adhesion of monocytes to endothelial cells [2]: only effective at 1 μM and 2 µM

OC[C@H]1O[C@@H](Oc2cc3c(O)cc(O)cc3[o+]c2-c2ccc(O)c(O)c2)[C@H](O)[C@@H](O)[C@H]1O [galactoside]
concentrations with significant reduction in the adhesion of monocytes to endothelial cells [2]: 0.1 to 2 µM

O=C(O)CNC(=O)c1ccccc1 [hippuric acids, hippuric acid]
concentrations with significant reduction in the adhesion of monocytes to endothelial cells [2]: only effective at 1 μM and 2 µM

O=C(O)c1ccc(O)c(O)c1 [protocatechuic acid]
concentrations with significant reduction in the adhesion of monocytes to endothelial cells [2]: all concentration tested

Triton X-100 [reference compound]
cell viability reduced up to (HUVECs): 20%
